From PMC11375011, “Inducible auto-phosphorylation regulates a widespread family of nucleotidyltransferase toxins” (Nature Communications, 2024)

Key:
[1] = target: T1, MenA1:MenT1 (MenT1 in the presence of MenA1) (Mycobacterium tuberculosis, UniProt L7N686)
T1 construct: gene Rv0078A

[2] = target: T1, MenA1:MenT1 (MenT1 in the presence of MenA1); remark: listed apart in the source

SMILES	phosphorylation assay of MenT1 [1]	ΔTm [2]
Nc1ncnc2c1ncn2[C@@H]1O[C@H](COP(=O)(O)OP(=O)(O)O)[C@@H](O)[C@H]1O [ADP]	Co-incubation of MenT1, MenA1 and MgCl2 with ADP, but not AMP or AMP-PNP, supported phosphorylation	–
Nc1ncnc2c1ncn2[C@@H]1O[C@H](COP(=O)(O)OP(=O)(O)OP(=O)(O)O)[C@@H](O)[C@H]1O [ATP]	–	no significant differences between mean ΔTm values were observed when incubated with any
Nc1ccn([C@@H]2O[C@H](COP(=O)(O)OP(=O)(O)OP(=O)(O)O)[C@@H](O)[C@H]2O)c(=O)n1 [CTP]	–	no significant differences between mean ΔTm values were observed when incubated with any
Nc1nc2c(ncn2[C@@H]2O[C@H](COP(=O)(O)OP(=O)(O)OP(=O)(O)O)[C@@H](O)[C@H]2O)c(=O)[nH]1 [GTP]	–	no significant differences between mean ΔTm values were observed when incubated with any
O=c1ccn([C@@H]2O[C@H](COP(=O)(O)OP(=O)(O)OP(=O)(O)O)[C@@H](O)[C@H]2O)c(=O)[nH]1 [UTP]	–	no significant differences between mean ΔTm values were observed when incubated with any
